Measurements from patent US8355136B2, “Sub-micron surface plasmon resonance sensor systems” (Indiana University Research and Technology Corporation, priority 2005, dated 2013).
Like-named read-outs stand apart in the source and are kept apart here.

What was measured:
GOx [1] = molecular target: T1, GOx (Aspergillus niger, UniProt P13006); conditions: for relative rate ± error / Ssubstrate − SL-Glu / Isubstrate / S/N / signal (Ibaseline − Isubstrate): 100 mM in PBS, 660 nm; for relative rate ± error: from exponential fits to the time series; for Ssubstrate − SL-Glu: signal minus L-Glu reference signal; for Isubstrate / S/N / signal (Ibaseline − Isubstrate): single MSPRS
T1 sequence (P13006 23-605 limits assumed): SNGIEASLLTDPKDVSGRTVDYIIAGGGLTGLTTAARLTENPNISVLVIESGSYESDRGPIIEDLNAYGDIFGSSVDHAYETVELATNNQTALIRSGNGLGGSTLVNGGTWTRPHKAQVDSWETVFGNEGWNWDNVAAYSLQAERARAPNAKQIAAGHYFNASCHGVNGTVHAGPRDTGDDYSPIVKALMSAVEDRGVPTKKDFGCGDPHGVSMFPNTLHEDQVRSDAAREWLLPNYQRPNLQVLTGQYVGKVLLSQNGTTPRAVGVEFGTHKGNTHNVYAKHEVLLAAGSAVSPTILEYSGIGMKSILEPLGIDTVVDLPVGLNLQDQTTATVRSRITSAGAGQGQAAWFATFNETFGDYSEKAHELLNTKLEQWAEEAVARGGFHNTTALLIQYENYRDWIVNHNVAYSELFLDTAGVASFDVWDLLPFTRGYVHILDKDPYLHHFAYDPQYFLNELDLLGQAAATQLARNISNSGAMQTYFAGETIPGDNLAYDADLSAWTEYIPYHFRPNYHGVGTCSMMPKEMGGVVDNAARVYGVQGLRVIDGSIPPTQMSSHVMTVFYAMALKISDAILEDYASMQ
Method: The resonance measured at 660 nm wavelength was used to monitor reaction kinetics because it had the least overlap with neighboring peaks and because it lay in the red-NIR (near infra-red) optical window of tissue transparency, which allows use of MSPRSs to study complex media like blood, blood plasma and serum.
After depositing the cross-linker, we rinsed the end of the tubing for 10 s with DI-water using a 1 mL syringe. […] After the MSPR sensor signal reached a stable plateau indicating reaction saturation, the sensors were rinsed with DI-water until no further change in signal was recorded.

GOx [2] = molecular target: T1, GOx; conditions: cited from earlier work
GOx [3] = molecular target: T1, GOx; assay: MSPR sensor monitoring of Gox enzymatic activity under substrate flow; conditions: for enzymatic activity response of Gox: flow of substrate, concentration not given
[4] = MSPR sensor, monolayer formation / adsorption kinetics on the gold surface
[5] = Biacore 3000 bare-gold-surface SPR chip, gold-DTSSP binding
[6] = Biacore 3000

| Compound | relative rate ± error (GOx [1]) | Ssubstrate − SL-Glu (GOx [1]) | Isubstrate (GOx [1]) | S/N (GOx [1]) | signal (Ibaseline − Isubstrate) (GOx [1]) | reaction rate with GOx as % of the βD-Glu rate (GOx [2]) | other results |
| --- | --- | --- | --- | --- | --- | --- | --- |
| O=CC[C@@H](O)[C@H](O)[C@H](O)CO [2Do-Glu, 2-Deoxy-D-Glucose] | 0.06 ± 65% | 14 counts/s | 22190 counts/s | 57 (17.5 dB) | 535 counts/s | 20% | enzymatic activity response of Gox (GOx [3]): no enzymatic activity response |
| OC[C@H]1OC(O)[C@@H](O)[C@@H](O)[C@@H]1O (stereo partly drawn) [D-Man] | 0.24 ± 28% | 58 counts/s | 22168 counts/s | 36 (15.5 dB) | 579 counts/s | 1% | – |
| O=C(CCSSCCC(=O)ON1C(=O)CC(S(=O)(=O)O)C1=O)ON1C(=O)CC(S(=O)(=O)O)C1=O (centres unmarked) [DTSSP] | – | – | – | – | – | – | time constant of monolayer formation ([4]; Example 5, phosphate buffer pH 5.8 and DI water): 105 ± 8 s; reaction time, gold-DTSSP binding ([4]; Example 6, MSPR sensor, 660 nm, exponential fit): 209 ± 7 s; gold-DTSSP reaction time longer on MSPR sensor than on Biacore ([4]; MSPR sensor versus Biacore 3000): ca. 12%; decrease of MSPR sensor-emitted intensity at 660 nm ([4]; saturated gold-DTSSP reaction, from water baseline): 1,481 counts/s; SPR binding signal [5]: 643 RU; reaction time, gold-DTSSP binding ([5]; exponential fitting): 184 ± 3 s |
| O=C[C@@H](O)[C@H](O)[C@@H](O)[C@@H](O)CO [L-Glu, L-Glucose] | 0.00 ± 0% | 0 counts/s | 22236 counts/s | 21 (13.2 dB) | 521 counts/s | 0% | interaction between substrate and sensor (GOx [1]; wash-in and wash-out, PBS baseline): absence of both specific and non-specific interactions; enzymatic activity response of Gox (GOx [3]): no enzymatic activity response |
| CCCCCCCCCCCCS [dodecanethiol] | – | – | – | – | – | – | time constant for the film formation ([4]; 100 mM concentration, from ethanol, first order exponential decay fit): 382 ± 7 s |
| OC[C@H]1O[C@H](O)[C@H](O)[C@@H](O)[C@@H]1O [αD-Glu, α-D-glucose] | – | – | – | – | – | 0.64% | – |
| OC[C@H]1O[C@@H](O)[C@H](O)[C@@H](O)[C@@H]1O [β-D+Glucose] | – | – | – | – | – | – | enzymatic activity of Gox detected (GOx [3]; 1 mM in PBS 1×): the response was much slower; enzymatic activity of Gox detected (GOx [3]; 100 mM in PBS 1×): able to detect the enzymatic activity |
| glucose oxidase [GOx] | – | – | – | – | – | – | decrease of output signal on binding (6.25 μM in DI-water, from DTSSP baseline): 1,424 counts/s; reaction time, DTSSP-GOx binding (Example 6, MSPR sensor, exponential fit): 211 ± 4 s; SPR binding signal [6]: 553 RU; reaction time, DTSSP-GOx binding ([6]; exponential fitting): 211 ± 4 s |
